Experiments:
Type in all cases: biochemical
HDAC1 enzyme = molecular target: T1, HDAC1 enzyme (Homo sapiens, UniProt Q13547); assay: HDAC1/6 Enzyme Inhibitory Assay (HDAC-Glo I/II Assay kit), HDAC1; details: 1 μM test compound, wells without enzyme = 100% inhibition; for inhibition at 1 µM: read-out: HDAC1 inhibitory rate (%) (1 μM)
T1 construct: transducing full length HDAC1 and HDAC6 genes into Sf-9 insect cells; GST; purchased SignalChem; host or cells: Sf-9 insect cells
Procedure, shortened: (§1)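 Full-length human HDAC1 or HDAC6, GST-purified from Sf-9 cells, was preincubated with compound for 60 min at room temperature in Tris-HCl pH 7.5 buffer with MgCl2, KCl, NaCl, glutathione and Tween-20. HDAC-Glo I/II substrate-developer was then added and reacted for 20 min before luminescence was read. Inhibition was set relative to no-enzyme wells as 100% inhibition.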

HDAC6 enzyme = molecular target: T2, HDAC6 enzyme (Homo sapiens, UniProt Q9UBN7); assay: HDAC1/6 Enzyme Inhibitory Assay (HDAC-Glo I/II Assay kit), HDAC6; details: 1 μM test compound, wells without enzyme = 100% inhibition; for inhibition at 1 µM: read-out: HDAC6 inhibitory rate (%) (1 μM)
T2 construct: transducing full length HDAC1 and HDAC6 genes into Sf-9 insect cells; GST; purchased SignalChem; host or cells: Sf-9 insect cells
T2 sequence (Q9UBN7 1-1215): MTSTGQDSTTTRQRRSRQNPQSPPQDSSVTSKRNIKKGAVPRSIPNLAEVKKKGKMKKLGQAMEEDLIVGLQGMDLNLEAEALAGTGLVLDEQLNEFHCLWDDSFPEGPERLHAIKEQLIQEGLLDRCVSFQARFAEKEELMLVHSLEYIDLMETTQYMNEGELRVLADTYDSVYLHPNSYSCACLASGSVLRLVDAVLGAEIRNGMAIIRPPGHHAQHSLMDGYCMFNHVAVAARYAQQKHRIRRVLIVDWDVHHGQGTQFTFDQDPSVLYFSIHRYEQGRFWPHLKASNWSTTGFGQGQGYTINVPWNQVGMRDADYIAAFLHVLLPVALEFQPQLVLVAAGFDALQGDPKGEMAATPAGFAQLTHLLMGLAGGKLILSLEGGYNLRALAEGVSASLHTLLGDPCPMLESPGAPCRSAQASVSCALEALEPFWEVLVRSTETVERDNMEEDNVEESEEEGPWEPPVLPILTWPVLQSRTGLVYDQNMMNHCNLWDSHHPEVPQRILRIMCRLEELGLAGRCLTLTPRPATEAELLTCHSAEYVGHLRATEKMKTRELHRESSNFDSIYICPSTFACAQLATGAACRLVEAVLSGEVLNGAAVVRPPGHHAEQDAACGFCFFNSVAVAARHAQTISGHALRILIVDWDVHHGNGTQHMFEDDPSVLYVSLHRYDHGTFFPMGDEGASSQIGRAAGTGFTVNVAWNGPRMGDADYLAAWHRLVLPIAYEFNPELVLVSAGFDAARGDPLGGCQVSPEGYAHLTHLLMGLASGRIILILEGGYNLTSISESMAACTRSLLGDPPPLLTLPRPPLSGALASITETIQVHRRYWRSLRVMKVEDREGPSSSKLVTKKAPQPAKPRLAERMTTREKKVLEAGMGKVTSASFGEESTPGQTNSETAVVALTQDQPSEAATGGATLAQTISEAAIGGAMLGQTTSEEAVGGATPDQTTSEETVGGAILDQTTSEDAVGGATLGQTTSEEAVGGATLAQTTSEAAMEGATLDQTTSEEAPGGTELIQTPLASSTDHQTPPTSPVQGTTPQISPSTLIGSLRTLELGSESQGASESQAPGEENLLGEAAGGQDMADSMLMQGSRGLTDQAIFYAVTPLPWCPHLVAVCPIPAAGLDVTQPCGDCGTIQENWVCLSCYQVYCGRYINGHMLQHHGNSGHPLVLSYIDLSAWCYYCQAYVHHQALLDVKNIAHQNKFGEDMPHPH
Procedure, shortened: as §1

HDAC9 enzyme = molecular target: T3, HDAC9 enzyme (Homo sapiens, UniProt Q9UKV0); assay: HDAC9 Enzyme Inhibitory Assay (HDAC-Glo class IIa); details: 1 μM test compound, wells without enzyme = 100% inhibition; for inhibition at 1 µM: read-out: HDAC9 inhibitory rate (%) (1 μM)
T3 construct: transducing full length HDAC9 gene into Sf-9 insect cells; made in house; host or cells: Sf-9 insect cells
T3 sequence (Q9UKV0 whole entry, species assumed): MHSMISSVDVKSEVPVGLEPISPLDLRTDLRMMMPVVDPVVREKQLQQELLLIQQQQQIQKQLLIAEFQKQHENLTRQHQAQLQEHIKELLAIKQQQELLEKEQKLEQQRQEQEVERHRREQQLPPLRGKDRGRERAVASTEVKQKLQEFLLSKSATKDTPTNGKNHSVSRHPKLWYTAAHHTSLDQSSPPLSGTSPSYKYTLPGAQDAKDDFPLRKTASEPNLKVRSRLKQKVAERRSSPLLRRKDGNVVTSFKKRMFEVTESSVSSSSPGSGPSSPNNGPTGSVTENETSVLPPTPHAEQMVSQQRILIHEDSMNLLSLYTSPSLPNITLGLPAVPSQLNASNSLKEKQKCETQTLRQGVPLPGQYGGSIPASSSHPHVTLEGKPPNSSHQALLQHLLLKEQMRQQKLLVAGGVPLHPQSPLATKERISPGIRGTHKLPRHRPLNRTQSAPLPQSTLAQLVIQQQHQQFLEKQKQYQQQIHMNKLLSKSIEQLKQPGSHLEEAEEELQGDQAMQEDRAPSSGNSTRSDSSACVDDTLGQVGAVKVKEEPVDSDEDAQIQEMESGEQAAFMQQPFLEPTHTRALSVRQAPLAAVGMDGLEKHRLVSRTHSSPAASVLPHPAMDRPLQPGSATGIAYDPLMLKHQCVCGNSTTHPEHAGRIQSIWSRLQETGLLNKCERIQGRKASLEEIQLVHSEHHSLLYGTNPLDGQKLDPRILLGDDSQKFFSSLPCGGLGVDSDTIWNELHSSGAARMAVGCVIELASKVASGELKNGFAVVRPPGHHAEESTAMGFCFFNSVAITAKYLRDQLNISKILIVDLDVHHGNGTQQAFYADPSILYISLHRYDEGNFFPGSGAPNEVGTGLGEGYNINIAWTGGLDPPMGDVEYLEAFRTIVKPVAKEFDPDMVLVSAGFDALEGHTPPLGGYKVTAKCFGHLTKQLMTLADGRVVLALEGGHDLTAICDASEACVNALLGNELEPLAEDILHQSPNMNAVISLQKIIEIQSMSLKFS
Procedure, shortened: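 Full-length human HDAC9 from Sf-9 cells, Ni-NTA purified, preincubated with compound for 60 min at room temperature in Tris-HCl pH 7.5 buffer (MgCl2, KCl, NaCl, glutathione, Tween-20). HDAC-Glo class IIa substrate-developer added; luminescence read after 20 min, with no-enzyme wells defining 100% inhibition.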

T1 sequence (Q13547 whole entry): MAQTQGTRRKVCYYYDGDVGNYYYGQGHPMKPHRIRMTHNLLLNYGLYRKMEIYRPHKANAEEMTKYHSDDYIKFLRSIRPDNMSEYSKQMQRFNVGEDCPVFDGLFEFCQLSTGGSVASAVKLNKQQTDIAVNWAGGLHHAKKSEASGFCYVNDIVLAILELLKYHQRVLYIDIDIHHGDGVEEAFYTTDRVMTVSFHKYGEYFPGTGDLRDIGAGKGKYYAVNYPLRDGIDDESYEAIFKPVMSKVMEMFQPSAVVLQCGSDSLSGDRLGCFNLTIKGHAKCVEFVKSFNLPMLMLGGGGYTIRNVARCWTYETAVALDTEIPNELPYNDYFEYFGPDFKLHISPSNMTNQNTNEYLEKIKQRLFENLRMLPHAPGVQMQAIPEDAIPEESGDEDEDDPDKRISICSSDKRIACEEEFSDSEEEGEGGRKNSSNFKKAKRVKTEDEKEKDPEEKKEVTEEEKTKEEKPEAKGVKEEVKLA

Compound | inhibition at 1 µM (HDAC1 enzyme) [%] | inhibition at 1 µM (HDAC6 enzyme) [%] | inhibition at 1 µM (HDAC9 enzyme) [%] | HDAC1 inhibitory rate (%) (1 μM) (HDAC1 enzyme) | HDAC6 inhibitory rate (%) (1 μM) (HDAC6 enzyme) | HDAC9 inhibitory rate (%) (1 μM) (HDAC9 enzyme) | HDAC9 inhibitory rate (%) (1 μM) (HDAC9 enzyme; 1 µM)
O=C(c1ccccc1)N1C[C@@H](N2Cc3ccc(-c4noc(C(F)(F)F)n4)cc3C2=O)[C@H](c2ccccc2)C1 (relative stereo) [Example 10, trans-2-(1-benzoyl-4-phenylpyrrolidin-3-yl)-6-(5-(trifluoromethyl)-1,2,4-oxadiazol-3-yl)isoindolin-1-one] | 63 | 96 | 96 | – | – | – | –
O=C(N[C@@H]1CCCC[C@H]1N1Cc2ccc(-c3noc(C(F)(F)F)n3)cc2C1=O)N1CCCC1 [Example 158, N-((1R,2R)-2-(1-oxo-6-(5-(trifluoromethyl)-1,2,4-oxadiazol-3-yl)-1,3-dihydro-2H-isoindol-2-yl)cyclohexyl)pyrrolidine-1-carboxamide] | 4 | 99 | 34 | – | – | – | –
O=C(N[C@@H]1CCCC[C@H]1N1Cc2ccc(-c3noc(C(F)(F)F)n3)cc2C1=O)C1CCCCCO1 (stereo partly drawn) [Example 133, N-((1R,2R)-2-(1-oxo-6-(5-(trifluoromethyl)-1,2,4-oxadiazol-3-yl)-1,3-dihydro-2H-isoindol-2-yl)cyclohexyl)oxepane-2-carboxamide] | – | – | – | 9 | 99 | 38 | –
O=C(N[C@H]1COCC[C@@H]1N1Cc2ccc(-c3noc(C(F)(F)F)n3)cc2C1=O)[C@H]1CC1(F)F [Example 221, (1R)-2,2-difluoro-N-((3R,4S)-4-(1-oxo-6-(5-(trifluoromethyl)-1,2,4-oxadiazol-3-yl)-1,3-dihydro-2H-isoindol-2-yl)tetrahydro-2H-pyran-3-yl)cyclopropanecarboxamide] | 34 | 90 | 86 | – | – | – | –
CC(C)(C)OC(=O)N1CC[C@H](N2Cc3ccc(-c4noc(C(F)(F)F)n4)cc3C2=O)[C@H](c2ccccc2)C1 [Example 14, tert-butyl (3R,4S)-4-(1-oxo-6-(5-(trifluoromethyl)-1,2,4-oxadiazol-3-yl)-1,3-dihydro-2H-isoindol-2-yl)-3-phenylpiperidine-1-carboxylate] | 0 | 68 | 48 | – | – | – | –
Cc1ccc([C@@H]2CNCC[C@H]2N2Cc3ccc(-c4noc(C(F)(F)F)n4)cc3C2=O)cc1Cl (relative stereo) [Example 56, 2-(trans-3-(3-chloro-4-methylphenyl)piperidin-4-yl)-6-(5-(trifluoromethyl)-1,2,4-oxadiazol-3-yl)isoindolin-1-one] | 93 | 97 | 99 | – | – | – | –
O=C(N[C@@H]1CCCC[C@H]1N1Cc2ccc(-c3noc(C(F)(F)F)n3)cc2C1=O)C1CCOCC1 [Example 37, N-((1R,2R)-2-(1-oxo-6-(5-(trifluoromethyl)-1,2,4-oxadiazol-3-yl)-1,3-dihydro-2H-isoindol-2-yl)cyclohexyl)tetrahydro-2H-pyran-4-carboxamide] | 1 | 96 | 19 | – | – | – | –
N[C@H]1CCC[C@@H]1N1Cc2ccc(-c3noc(C(F)(F)F)n3)cc2C1=O [Example 143, 2-((1S,2S)-2-aminocyclopentyl)-6-(5-(trifluoromethyl)-1,2,4-oxadiazol-3-yl)isoindolin-1-one] | -1 | -4 | 52 | – | – | – | –
O=C(Cn1c(=O)oc2ccccc21)N1CCC(N2Cc3ccc(-c4noc(C(F)(F)F)n4)cc3C2=O)CC1 [Example 65, 3-(2-oxo-2-(4-(1-oxo-6-(5-(trifluoromethyl)-1,2,4-oxadiazol-3-yl)-1,3-dihydro-2H-isoindol-2-yl)piperidin-1-yl)ethyl)-1,3-benzoxazol-2(3H)-one] | 7 | 89 | 73 | – | – | – | –
N[C@H]1CCCC[C@H]1N1Cc2ccc(-c3noc(C(F)(F)F)n3)cc2C1=O (relative stereo) [Example 199, 2-(cis-2-aminocyclohexyl)-6-(5-(trifluoromethyl)-1,2,4-oxadiazol-3-yl)isoindolin-1-one] | 5 | 68 | 75 | – | – | – | –
O=C(N[C@@H]1CCCC[C@H]1N1Cc2ccc(-c3noc(C(F)(F)F)n3)cc2C1=O)C1CC1 (relative stereo) [Example 12, trans-N-(2-(1-oxo-6-(5-(trifluoromethyl)-1,2,4-oxadiazol-3-yl)-1,3-dihydro-2H-isoindol-2-yl)cyclohexyl)cyclopropanecarboxamide] | 9 | 98 | 48 | – | – | – | –
O=C1c2cc(-c3noc(C(F)(F)F)n3)ccc2CN1[C@H]1CCCC[C@@H]1N1CCOCC1 (relative stereo) [Example 59, 2-(trans-2-(morpholin-4-yl)cyclohexyl)-6-(5-(trifluoromethyl)-1,2,4-oxadiazol-3-yl)isoindolin-1-one] | 60 | 97 | 91 | – | – | – | –
CCC1(C(=O)N[C@@H]2CCCC[C@H]2N2Cc3ccc(-c4noc(C(F)(F)F)n4)cc3C2=O)COC1 [Example 138, 3-ethyl-N-((1R,2R)-2-(1-oxo-6-(5-(trifluoromethyl)-1,2,4-oxadiazol-3-yl)-1,3-dihydro-2H-isoindol-2-yl)cyclohexyl)oxetane-3-carboxamide] | 2 | 97 | 55 | – | – | – | –
O=C(CC1(O)CCCC1)N[C@@H]1CCCC[C@H]1N1Cc2ccc(-c3noc(C(F)(F)F)n3)cc2C1=O [Example 91, 2-(1-hydroxycyclopentyl)-N-((1R,2R)-2-(1-oxo-6-(5-(trifluoromethyl)-1,2,4-oxadiazol-3-yl)-1,3-dihydro-2H-isoindol-2-yl)cyclohexyl)acetamide] | 11 | 99 | 44 | – | – | – | –
O=C(N[C@@H]1CCCC[C@H]1N1Cc2ccc(-c3noc(C(F)(F)F)n3)cc2C1=O)C1C[C@@H]1F (stereo partly drawn) [Example 98, 2-fluoro-N-((1R,2R)-2-(1-oxo-6-(5-(trifluoromethyl)-1,2,4-oxadiazol-3-yl)-1,3-dihydro-2H-isoindol-2-yl)cyclohexyl) cyclopropanecarboxamide] | 4 | 99 | 55 | – | – | – | –
N[C@@H]1CCC[C@H]1N1Cc2ccc(-c3noc(C(F)(F)F)n3)cc2C1=O [Example 142, 2-((1R,2R)-2-aminocyclopentyl)-6-(5-(trifluoromethyl)-1,2,4-oxadiazol-3-yl)isoindolin-1-one] | -6 | -3 | 54 | – | – | – | –
O=C(N[C@@H]1CCOC[C@@H]1N1Cc2ccc(-c3noc(C(F)(F)F)n3)cc2C1=O)C1CC1(F)F (single isomer, unassigned) [Example 211, (1R) or (1S)-2,2-difluoro-N-((3R,4R)-3-(1-oxo-6-(5-(trifluoromethyl)-1,2,4-oxadiazol-3-yl)-1,3-dihydro-2H-isoindol-2-yl)tetrahydro-2H-pyran-4-yl)cyclopropanecarboxamide] | – | – | – | −1 | 43 | – | 33

From patent US10308643B2, “Heterocyclic compound” (Takeda Pharmaceutical Company Limited, priority 2015, dated 2019)
